Activity calls are given as the source filed them.
Key:
[1] = target: T1, Voltage-gated N-type calcium channel alpha-1B subunit/Amyloid beta A4 precursor protein-binding family A member 1 (Homo sapiens, UniProt Q00975+Q02410); test: disruptors of Mint-PDZ/N-type channel peptide interaction – biochemical, HTRF, set 2, SAR follow-up (AID 434980); assay type: functional
SUMO E1/E2 = SUMO E1/E2 (Homo sapiens, UniProt P63279+Q9UBE0+Q9UBT2); test: SAR analysis of SUMOylation using HTRF in an in-Vitro dose response assay. [Related pubchem assays (depositor defined):AID2006, AID2011, AID2018, AID2069, AID2658]; assay type: functional
[2] = target: T1, Voltage-gated N-type calcium channel alpha-1B subunit/Amyloid beta A4 precursor protein-binding family A member 1; test: disruptors of Mint-PDZ/N-type channel peptide interaction – biochemical, HTRF, SAR follow-up (AID 2489); assay type: functional
[3] = target: Glutathione-S-transferase (Schistosoma japonicum, UniProt Q26513); test: biotin-GST/anti-GST TR-FRET signal inhibitors, dose response, artefact control for Vif-APOBEC3G degradation inhibitor project, biochemical (AID 1117362); assay type: functional
[4] = control 3'UTR Renilla luciferase suppression, dose response, counter-screen for Shn3 inhibitor project, cell-based, Clone20-Shn3RL, cherry-picked (AID 624133); assay type: functional
Beta-galactosidase = Beta-galactosidase (Escherichia coli, UniProt Q8VNN2); test: beta-galactosidase enzyme inhibitors and activators, dose response, artefact control for CCR6 antagonist project, biochemical, E. coli enzyme, set 3 (AID 504712); assay type: functional
[5] = Shn3 3'UTR reporter inhibitors, dose response, cell-based, Clone20 osteoblasts, firefly luciferase, cherry-picked (AID 624132); assay type: functional;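 also: firefly luciferase luminescence from reporter carrying the Shn3 3'UTR in osteoblasts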
[6] = target: Glucose-6-phosphate 1-dehydrogenase (Homo sapiens, UniProt P11413); test: human G6PD enzyme inhibitors, dose response, selectivity assay for P. falciparum G6PD inhibitor project, biochemical, fluorescence (AID 504792); assay type: functional
[7] = target: C-C chemokine receptor type 6 (Homo sapiens, UniProt P51684); test: CCR6 receptor antagonists, dose response, cell-based, luminescent beta-arrestin readout (AID 504728); assay type: functional
[8] = THP-1 cell cytotoxicity, dose response, cytotoxicity control for Vif-APOBEC3G degradation inhibitor project, THP-1 cells (AID 1117359); assay type: functional; conditions: Human immunodeficiency virus 1, THP-1
Genome polyprotein = Genome polyprotein (dengue virus type 2, UniProt P29990); test: Dengue-2 NS5 methyltransferase inhibitors, primary screen, biochemical, confirmation dose response (AID 588689); assay type: functional
Vero = Vero cell cytotoxicity, cytotoxicity control for flavivirus capping enzyme inhibitors (AID 588742); assay type: functional; conditions: Chlorocebus sabaeus
Nonstructural protein 1 = Nonstructural protein 1 (Influenza A virus, UniProt Q194T2); assay type: functional, Influenza A virus (A/California/07/2009(H1N1))
[9] = human group III sPLA2 inhibitors, dose response, biochemical, QFRET, IC50 (AID 743457);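 also: green fluorescence rise as the enzyme cleaves BODIPY PC-A2 in liposomes; potency for inhibition of the enzyme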
[10] = HepG2 cell cytotoxicity, dose response, cytotoxicity control for Shn3 inhibitor project, CellTiter-Glo, cherry-picked (AID 624134); assay type: functional, cell-based
[11] = target: T2, Short transient receptor potential channel 4 (Mus musculus, UniProt Q9QUQ5); test: mouse TRPC4 channel inhibitors, dose response, cell-based, HEK293 TRPC4/mu-opioid, Fluo-4 calcium (AID 434942); assay type: functional;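 also: potency of inhibitors blocking the TRPC4 calcium response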
T2 sequence (Q9QUQ5 whole entry): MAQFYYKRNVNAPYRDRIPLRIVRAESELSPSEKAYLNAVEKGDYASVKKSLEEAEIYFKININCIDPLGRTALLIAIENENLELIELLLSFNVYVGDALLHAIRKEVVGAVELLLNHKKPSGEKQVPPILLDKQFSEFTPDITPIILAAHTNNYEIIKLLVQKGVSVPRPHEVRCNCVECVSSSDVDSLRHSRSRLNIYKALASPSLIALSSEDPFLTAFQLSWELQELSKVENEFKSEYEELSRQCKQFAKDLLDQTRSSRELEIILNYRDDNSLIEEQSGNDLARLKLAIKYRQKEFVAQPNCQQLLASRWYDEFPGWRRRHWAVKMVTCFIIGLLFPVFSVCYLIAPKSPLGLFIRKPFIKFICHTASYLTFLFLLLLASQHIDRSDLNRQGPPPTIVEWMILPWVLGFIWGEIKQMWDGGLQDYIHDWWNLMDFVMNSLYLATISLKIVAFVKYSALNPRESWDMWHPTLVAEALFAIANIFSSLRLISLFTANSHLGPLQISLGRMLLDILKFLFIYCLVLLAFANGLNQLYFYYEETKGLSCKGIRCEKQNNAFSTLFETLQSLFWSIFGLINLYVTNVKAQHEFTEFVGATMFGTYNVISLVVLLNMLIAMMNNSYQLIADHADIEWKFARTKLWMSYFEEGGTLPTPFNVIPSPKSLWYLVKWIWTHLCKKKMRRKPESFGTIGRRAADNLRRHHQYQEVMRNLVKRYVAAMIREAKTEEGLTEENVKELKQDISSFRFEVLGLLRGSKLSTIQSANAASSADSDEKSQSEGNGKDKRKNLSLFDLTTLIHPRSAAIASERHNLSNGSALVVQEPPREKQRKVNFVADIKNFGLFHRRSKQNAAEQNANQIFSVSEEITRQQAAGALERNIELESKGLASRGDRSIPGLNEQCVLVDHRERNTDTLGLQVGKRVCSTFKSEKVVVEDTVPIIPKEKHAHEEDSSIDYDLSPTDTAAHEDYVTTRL

cells [12] = assay type: functional, cell-based
[13] = target: Acyl-homoserine lactone acylase PvdQ (Pseudomonas aeruginosa (strain LESB58), UniProt Q9I194); test: P. aeruginosa PvdQ acylase inhibitors, dose response, biochemical, fluorescence, plate reader and imaging, cherry-picks (AID 493231)
cells [14] = assay type: functional, cell-based; remark: listed apart in the source
[15] = target: T3, Corticotropin-releasing factor receptor 2/Corticotropin-releasing factor-binding protein (Homo sapiens, UniProt P24387+Q13324); test: activators of CRF receptor 2 with binding protein – uHTS hits, confirmation (AID 602473); assay type: functional; conditions: read-out: EC50_Mean
T3 sequence (Q13324 whole entry): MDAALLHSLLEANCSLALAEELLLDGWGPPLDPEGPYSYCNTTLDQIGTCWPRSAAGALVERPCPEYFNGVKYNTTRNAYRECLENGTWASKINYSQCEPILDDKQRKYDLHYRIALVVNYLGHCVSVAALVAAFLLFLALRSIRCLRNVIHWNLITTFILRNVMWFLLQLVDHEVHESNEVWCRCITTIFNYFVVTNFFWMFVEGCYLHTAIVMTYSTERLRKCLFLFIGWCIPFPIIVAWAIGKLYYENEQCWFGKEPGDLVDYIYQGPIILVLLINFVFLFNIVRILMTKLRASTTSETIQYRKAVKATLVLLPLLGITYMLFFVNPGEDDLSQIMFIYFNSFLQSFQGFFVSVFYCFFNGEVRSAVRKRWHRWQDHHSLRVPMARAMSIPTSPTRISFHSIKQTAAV
T3 sequence (P24387 whole entry): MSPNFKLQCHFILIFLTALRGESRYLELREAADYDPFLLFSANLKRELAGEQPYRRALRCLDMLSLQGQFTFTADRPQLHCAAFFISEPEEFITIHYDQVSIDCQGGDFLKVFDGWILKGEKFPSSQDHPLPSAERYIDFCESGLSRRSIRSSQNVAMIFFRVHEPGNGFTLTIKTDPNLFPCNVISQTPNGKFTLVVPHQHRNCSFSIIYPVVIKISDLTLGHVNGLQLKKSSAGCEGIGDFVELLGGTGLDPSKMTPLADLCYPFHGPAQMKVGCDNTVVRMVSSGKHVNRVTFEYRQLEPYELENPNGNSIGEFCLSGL

[16] = microbe, parasite or virus in culture; assay type: functional; conditions: Mycobacterium tuberculosis
X-box-binding protein 1 = X-box-binding protein 1 (Homo sapiens, UniProt P17861); assay type: functional, Cricetulus griseus;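 also: confirmatory dose-response counter-screen serving a CHOP assay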
[17] = target: Luciferin 4-monooxygenase (Photinus pyralis, UniProt P08659); test: Counter Screen for Luciferase-based Assay Positives. [Related pubchem assays: 620, 618, 411 ]
HT-1080 = test: cytotoxicity in HT1080 fibrosarcoma cells, cell-based, fluorescence readout (AID 620); assay type: functional; conditions: Homo sapiens
Streptococcus = test: Group A Streptococcus viability loss, dose response, counter-screen for streptokinase expression inhibitor project, luminescence, BacTiterGlo (AID 1915); assay type: functional, organism-based;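 also: potency for reduction of bacterial viability or growth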
INS1 = test: beta cell apoptosis inhibitors, cytokine rescue, dose response, luminescence, retest (AID 449756); assay type: functional, cell-based; conditions: Rattus norvegicus;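 also: cell death triggered by IL-1 beta plus TNF-alpha plus IFN-gamma mixture; protective hits raise ATP signal compared with cytokine alone wells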
[18] = system: Streptococcus sp. 'group A'; test: growth inhibition of control SK(-) GAS strain, dose response, counter-screen for streptokinase expression inhibitor project, luminescence, kanamycin, BacTiterGlo, confirmation (AID 1900); assay type: functional, organism-based

Beta-galactosidase, sequence (Q8VNN2 whole entry): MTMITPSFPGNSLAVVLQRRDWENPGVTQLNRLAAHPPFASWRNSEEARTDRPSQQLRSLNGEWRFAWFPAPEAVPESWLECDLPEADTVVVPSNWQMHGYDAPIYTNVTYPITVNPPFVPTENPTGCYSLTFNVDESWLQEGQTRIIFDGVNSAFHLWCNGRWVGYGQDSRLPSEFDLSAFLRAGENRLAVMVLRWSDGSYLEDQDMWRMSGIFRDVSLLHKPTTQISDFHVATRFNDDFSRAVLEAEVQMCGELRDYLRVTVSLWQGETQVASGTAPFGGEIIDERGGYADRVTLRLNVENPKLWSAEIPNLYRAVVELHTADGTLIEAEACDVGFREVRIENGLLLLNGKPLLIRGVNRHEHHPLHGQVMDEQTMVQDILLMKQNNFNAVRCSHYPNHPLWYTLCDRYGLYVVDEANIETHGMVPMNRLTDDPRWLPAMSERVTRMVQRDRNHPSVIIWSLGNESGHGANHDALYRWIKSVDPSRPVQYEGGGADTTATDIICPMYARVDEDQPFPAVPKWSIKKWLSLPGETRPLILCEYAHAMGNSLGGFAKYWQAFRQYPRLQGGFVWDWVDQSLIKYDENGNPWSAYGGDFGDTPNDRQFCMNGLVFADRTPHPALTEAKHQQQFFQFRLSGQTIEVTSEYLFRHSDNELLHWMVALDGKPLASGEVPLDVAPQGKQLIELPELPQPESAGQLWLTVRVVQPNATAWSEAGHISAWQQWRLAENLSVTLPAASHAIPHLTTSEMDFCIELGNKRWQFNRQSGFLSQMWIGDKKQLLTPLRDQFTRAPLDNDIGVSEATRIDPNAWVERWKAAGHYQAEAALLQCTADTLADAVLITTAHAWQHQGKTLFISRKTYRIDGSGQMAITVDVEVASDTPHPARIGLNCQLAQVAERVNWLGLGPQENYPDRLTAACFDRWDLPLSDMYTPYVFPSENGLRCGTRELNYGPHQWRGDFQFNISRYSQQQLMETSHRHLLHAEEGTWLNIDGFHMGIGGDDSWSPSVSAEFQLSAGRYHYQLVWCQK
T1 sequence (Q00975 whole entry): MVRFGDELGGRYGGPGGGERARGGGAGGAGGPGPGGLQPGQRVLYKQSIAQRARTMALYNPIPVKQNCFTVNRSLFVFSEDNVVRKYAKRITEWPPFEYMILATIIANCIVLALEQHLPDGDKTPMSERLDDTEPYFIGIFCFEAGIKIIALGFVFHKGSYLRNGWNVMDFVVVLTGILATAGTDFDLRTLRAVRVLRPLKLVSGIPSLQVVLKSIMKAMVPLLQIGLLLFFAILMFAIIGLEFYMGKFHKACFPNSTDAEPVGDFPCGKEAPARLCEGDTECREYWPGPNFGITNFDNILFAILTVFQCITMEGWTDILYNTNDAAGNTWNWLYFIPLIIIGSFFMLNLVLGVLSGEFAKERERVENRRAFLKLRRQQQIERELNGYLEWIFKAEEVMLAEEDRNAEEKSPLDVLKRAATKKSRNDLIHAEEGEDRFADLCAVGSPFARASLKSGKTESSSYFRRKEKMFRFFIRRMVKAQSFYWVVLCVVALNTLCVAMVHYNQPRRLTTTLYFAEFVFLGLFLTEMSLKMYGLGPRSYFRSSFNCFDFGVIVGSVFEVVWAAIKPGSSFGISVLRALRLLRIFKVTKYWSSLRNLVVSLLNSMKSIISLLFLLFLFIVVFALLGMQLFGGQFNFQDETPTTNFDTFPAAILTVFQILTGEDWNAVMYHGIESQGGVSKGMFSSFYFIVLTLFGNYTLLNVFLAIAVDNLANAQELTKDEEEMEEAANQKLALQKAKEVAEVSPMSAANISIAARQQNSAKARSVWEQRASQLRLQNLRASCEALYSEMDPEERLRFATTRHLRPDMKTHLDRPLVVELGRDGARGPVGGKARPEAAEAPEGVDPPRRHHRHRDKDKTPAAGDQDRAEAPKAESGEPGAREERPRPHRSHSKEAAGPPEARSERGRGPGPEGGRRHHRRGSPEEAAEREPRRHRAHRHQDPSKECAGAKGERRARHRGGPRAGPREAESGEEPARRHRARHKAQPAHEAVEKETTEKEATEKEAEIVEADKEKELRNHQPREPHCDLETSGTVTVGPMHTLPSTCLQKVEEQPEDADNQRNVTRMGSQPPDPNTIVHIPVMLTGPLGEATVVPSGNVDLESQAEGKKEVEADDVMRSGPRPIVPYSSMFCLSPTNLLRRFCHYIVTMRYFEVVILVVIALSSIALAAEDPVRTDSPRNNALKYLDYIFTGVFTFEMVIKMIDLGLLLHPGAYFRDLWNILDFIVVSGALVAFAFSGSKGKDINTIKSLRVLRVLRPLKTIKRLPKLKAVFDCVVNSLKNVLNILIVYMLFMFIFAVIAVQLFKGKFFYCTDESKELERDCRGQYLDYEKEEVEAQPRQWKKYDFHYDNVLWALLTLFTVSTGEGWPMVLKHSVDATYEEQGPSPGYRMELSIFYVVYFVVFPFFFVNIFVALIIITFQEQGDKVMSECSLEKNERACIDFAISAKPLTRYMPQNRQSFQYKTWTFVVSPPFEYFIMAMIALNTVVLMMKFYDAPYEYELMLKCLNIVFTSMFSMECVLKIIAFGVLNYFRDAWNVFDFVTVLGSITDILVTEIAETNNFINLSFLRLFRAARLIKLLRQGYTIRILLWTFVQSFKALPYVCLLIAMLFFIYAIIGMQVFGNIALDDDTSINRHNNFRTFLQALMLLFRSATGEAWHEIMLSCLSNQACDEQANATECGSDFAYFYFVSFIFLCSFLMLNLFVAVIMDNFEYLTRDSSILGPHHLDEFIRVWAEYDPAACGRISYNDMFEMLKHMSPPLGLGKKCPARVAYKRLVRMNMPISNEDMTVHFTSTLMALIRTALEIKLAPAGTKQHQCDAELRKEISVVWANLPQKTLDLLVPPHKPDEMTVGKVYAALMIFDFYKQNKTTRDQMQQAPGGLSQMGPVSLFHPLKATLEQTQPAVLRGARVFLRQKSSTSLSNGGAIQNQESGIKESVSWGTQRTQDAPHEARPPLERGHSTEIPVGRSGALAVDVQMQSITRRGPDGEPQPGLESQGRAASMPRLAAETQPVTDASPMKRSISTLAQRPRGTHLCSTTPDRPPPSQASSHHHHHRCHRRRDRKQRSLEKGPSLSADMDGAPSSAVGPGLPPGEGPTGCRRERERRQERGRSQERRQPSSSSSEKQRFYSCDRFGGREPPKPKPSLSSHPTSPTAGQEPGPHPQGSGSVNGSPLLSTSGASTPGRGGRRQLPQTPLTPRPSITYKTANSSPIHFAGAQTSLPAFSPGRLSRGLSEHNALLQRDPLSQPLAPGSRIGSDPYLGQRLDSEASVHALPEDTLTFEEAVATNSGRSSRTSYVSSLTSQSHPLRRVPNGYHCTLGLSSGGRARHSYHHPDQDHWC
T1 sequence (Q02410 whole entry): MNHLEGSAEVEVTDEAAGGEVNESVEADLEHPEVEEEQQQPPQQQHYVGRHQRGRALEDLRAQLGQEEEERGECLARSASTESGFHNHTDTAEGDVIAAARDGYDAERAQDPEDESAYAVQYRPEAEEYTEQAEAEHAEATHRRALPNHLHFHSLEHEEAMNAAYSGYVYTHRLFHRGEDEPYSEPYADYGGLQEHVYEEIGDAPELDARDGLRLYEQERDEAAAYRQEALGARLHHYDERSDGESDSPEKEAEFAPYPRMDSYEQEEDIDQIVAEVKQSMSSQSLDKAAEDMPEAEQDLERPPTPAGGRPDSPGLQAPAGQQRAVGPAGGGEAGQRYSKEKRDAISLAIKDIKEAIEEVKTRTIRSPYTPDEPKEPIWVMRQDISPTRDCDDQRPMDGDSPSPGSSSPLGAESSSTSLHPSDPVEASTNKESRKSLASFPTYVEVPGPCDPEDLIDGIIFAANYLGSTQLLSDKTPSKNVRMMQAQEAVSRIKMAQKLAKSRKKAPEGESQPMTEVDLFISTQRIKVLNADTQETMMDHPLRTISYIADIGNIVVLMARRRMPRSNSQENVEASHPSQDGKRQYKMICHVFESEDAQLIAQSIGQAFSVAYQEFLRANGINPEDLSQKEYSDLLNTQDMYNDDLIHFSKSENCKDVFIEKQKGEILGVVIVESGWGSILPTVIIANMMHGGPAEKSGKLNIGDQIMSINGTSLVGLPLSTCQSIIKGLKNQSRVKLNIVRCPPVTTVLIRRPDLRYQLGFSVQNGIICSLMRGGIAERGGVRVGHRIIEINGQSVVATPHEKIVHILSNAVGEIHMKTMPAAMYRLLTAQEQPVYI
C-C chemokine receptor type 6, sequence (P51684 whole entry): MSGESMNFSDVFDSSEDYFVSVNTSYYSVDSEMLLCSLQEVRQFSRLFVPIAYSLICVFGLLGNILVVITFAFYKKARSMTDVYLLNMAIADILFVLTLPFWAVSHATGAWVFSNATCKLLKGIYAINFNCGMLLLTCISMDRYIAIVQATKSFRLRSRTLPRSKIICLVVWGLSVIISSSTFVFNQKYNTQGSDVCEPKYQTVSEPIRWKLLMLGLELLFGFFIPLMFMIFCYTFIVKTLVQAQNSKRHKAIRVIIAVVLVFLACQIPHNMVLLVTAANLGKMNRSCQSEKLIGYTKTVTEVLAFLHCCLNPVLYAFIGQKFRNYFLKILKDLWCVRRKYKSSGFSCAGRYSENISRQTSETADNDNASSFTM
Glucose-6-phosphate 1-dehydrogenase, sequence (P11413 whole entry): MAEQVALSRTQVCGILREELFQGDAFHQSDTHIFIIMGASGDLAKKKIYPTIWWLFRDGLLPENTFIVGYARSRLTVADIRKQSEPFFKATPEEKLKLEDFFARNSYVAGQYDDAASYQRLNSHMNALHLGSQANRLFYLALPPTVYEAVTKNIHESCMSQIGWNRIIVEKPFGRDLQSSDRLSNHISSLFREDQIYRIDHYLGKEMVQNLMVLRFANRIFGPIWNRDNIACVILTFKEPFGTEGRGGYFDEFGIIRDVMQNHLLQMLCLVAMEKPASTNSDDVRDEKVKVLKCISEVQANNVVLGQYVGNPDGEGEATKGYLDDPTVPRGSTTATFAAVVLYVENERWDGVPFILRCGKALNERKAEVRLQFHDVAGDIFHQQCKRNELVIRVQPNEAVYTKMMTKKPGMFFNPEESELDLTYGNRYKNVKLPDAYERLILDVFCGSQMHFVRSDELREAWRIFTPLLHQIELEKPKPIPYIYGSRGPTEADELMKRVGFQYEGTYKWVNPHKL

## COc1ccc(CNC(=O)CCOC(=O)c2cc(-c3ccco3)nc3ccccc23)cc1
[1]
  IC50: 14.4 µM (active)
SUMO E1/E2
  IC50: 29.6 µM (active)
[2]
  IC50: 20.8 µM (active)

## CN(C)c1ccc(/C=c2\c3cc([N+](=O)[O-])ccc3n3c2cc(-c2ccccc2)[n+]3C)cc1
[3]
  IC50: 5.79 µM (active)
[4]
  AC50: 5.6 µM (active)
Beta-galactosidase
  IC50: > 66.6 µM (inactive)
[5]
  AC50: 3.3 µM (active)
[6]
  IC50: 28.3 µM (inactive)
[7]
  IC50: 31.9 µM (inactive)
[8]
  CC50: 1.48 µM (active)
Genome polyprotein
  IC50: 11.8 µM (active)
Vero
  CC50: 34.8 µM (active)
Nonstructural protein 1
  IC50: 4.31 µM (active)
[9]
  IC50: 6.13 µM (active)
[10]
  AC50: 14.6 µM (active)

## Cc1ccc(-c2[nH]c3ccccc3c2SCCN)cc1
[11]
  EC50: 4.73 µM (active)

## CCOC(=O)N1CCN(c2ccc(Cl)c(Cl)c2)CC1
Cells [12]
  EC50: > 350 µM (not active)
[13]
  AC50: 25.5 µM (active)
Cells [14]
  EC50: > 350 µM (not active)

## O=C(c1ccc2c(c1)OCO2)C1CCCN(Cc2cc(F)ccc2-n2cccn2)C1 (stereo not given)
[11]
  EC50: 5.96 µM (active)
[15]
  EC50: > 53 µM (inactive)

## Cc1ccc(C2CN(C)C3(C(=O)Nc4ccccc43)C23COc2ccccc2C3=O)cc1 (stereo not given)
[16]
  CC50: > 40 µM (active)
X-box-binding protein 1
  Absolute IC50 (XBP1): 10 µM

## Cc1c(C(=O)NC2=NCCS2)oc2ccccc12
[17]
  EC50: 2.67 µM (active)
HT-1080
  EC50: > 50 µM (not active)

## CN(C)c1nc(N/N=C/c2ccccc2O)nc(Nc2ccc(F)cc2)n1
Streptococcus
  EC50: 5.81 µM (active)
Beta-galactosidase
  IC50: > 66.6 µM (inactive)
[7]
  IC50: > 66.6 µM (inactive)
INS1
  AC50: 3.59 µM (active)
[18]
  EC50: 3.62 µM (active)

— ChEMBL document CHEMBL1201862, “PubChem BioAssay data set” (2004)
